These results are taken from US5597899A, “Tumor necrosis factor muteins” (Hoffmann-La Roche Inc., priority 1993, dated 1997).

Numbering of substitutions follows the chain as printed. In names and notes the source's numbering stands.

The test system of assay [1] is human TNFR-p75. Put plainly: Competitive binding of purified muteins to recombinant human TNFR-p75. As to conditions: for Decrease in Binding Affinity with Respect to Wildtype TNFR-p75: IC50 of mutein divided by IC50 of wildtype TNFα; for Mutein Concentration for 50% Inhibition of 125I-TNFα Binding (IC50) TNFR-p75: purified protein, 10 ng/ml 125I-TNFα. The procedure:
(§1) The cells were disrupted in a French press at a pressure of 20'000 psi or by sonication in a Branson Sonifier (Model 450, 2×2minat maximal output, on ice). […] Proteins were eluted with a linear NaCl gradient (0 to 400 mM in 20 mM Tris pH 9.0) at a flow rate of 1 ml/min. 5 ml fractions were collected and analyzed for the presence of TNFα muteins by SDS-PAGE. Positive fractions were pooled, dialyzed against 20 mM 2-morpholino-ethanesulfonic acid (MES) pH 6.0 and applied to a MonoS column (HR 5/5, LKB-Pharmacia) equilibrated in 20 mM MES pH 6.0. Proteins were eluted with a linear NaCl gradient (0 to 400 mM in 20 mM MES pH 6.0) at a flow rate of 0.5 ml/min. […] After dialysis against PBS the protein concentration was determined by the BCA Protein Assay (Pierce Chemical Company) using wild-type human TNFα as a standard or by absorbance measurements at 280 nm.
(§2) TNFα was labelled by the Iodogen method (Pierce Chemical Company) to a specific activity of about 10-30 μCi/μg. The volume was 100 μl/well and each concentration was assayed in duplicate or triplicate. After three hours at room temperature the wells were thoroughly washed with PBS and counted in a γ-counter.

Assay [2] deals with human TNFR-p75. The assay is described as follows: Solid phase radioligand competition binding assay, E. coli lysates, TNFR-p75. As to conditions: 10-fold serial dilutions 10^-2 to 10^-7, < = inhibition but below 50% at 1:100, << = no measurable inhibition at 1:100. (In a radioligand displacement assay an active substance lowers the binding of a labelled ligand.)
Assay [3] relates to human TNFR-p55. The assay is described as follows: Competitive binding of purified muteins to recombinant human TNFR-p55. As to conditions: for Decrease in Binding Affinity with Respect to Wildtype TNFR-p55: IC50 of mutein divided by IC50 of wildtype TNFα; for Mutein Concentration for 50% Inhibition of 125I-TNFα Binding (IC50) TNFR-p55: purified protein, 10 ng/ml 125I-TNFα, > = competition but below 50% at 100 μg/ml, >> = no measurable competition at 100 μg/ml. How it is done: as §1, §2

In assay [4] the test system is human TNFR-p55. The assay is described as follows: Solid phase radioligand competition binding assay, E. coli lysates, TNFR-p55. Particulars: for Dilution of E. coli Lysate for 50% Inhibition of 125I-TNFα Binding (ID50) TNFR-p55: 10-fold serial dilutions 10^-2 to 10^-7, < = inhibition but below 50% at 1:100, << = no measurable inhibition at 1:100; for ID50 TNFR-p55 / ID50 TNFR-p75: ratio = 1 no receptor selectivity, > 1 TNFR-p55 selectivity, < 1 TNFR-p75 selectivity.

For A145F: human TNFα mutein A145F, in assay [1], the “Decrease in Binding Affinity with Respect to Wildtype TNFR-p75” value (“Decrease … to Wildtype TNFR-p75” below) worked out at 1.5 fold and the “Mutein Concentration for 50% Inhibition of 125I-TNFα Binding (IC50) TNFR-p75” value amounted to 0.03 µg/mL. In addition, in assay [2], the “Dilution of E. coli Lysate for 50% Inhibition of 125I-TNFα Binding (ID50) TNFR-p75” value is given as 6,000 fold. Also, in assay [3], the “Decrease in Binding Affinity with Respect to Wildtype TNFR-p55” value (“Decrease … to Wildtype TNFR-p55” for short) amounted to 33 fold and the “Mutein Concentration for 50% Inhibition of 125I-TNFα Binding (IC50) TNFR-p55” value turned out to be 500 ng/mL. In addition, in assay [4], the “Dilution of E. coli Lysate for 50% Inhibition of 125I-TNFα Binding (ID50) TNFR-p55” value is recorded as 240 fold and the “ID50 TNFR-p55 / ID50 TNFR-p75” value is recorded as 0.04.
D143N: human TNFα mutein D143N: in assay [1], the “Decrease … to Wildtype TNFR-p75” value came out at 6.7 fold and the “Mutein Concentration for 50% Inhibition of 125I-TNFα Binding (IC50) TNFR-p75” value is 0.3 µg/mL. Further, the “Dilution of E. coli Lysate for 50% Inhibition of 125I-TNFα Binding (ID50) TNFR-p75” value in assay [2] was 330 fold. Moreover, in assay [3], the “Decrease … to Wildtype TNFR-p55” value is > 2,500 fold and the “Mutein Concentration for 50% Inhibition of 125I-TNFα Binding (IC50) TNFR-p55” value was > 100,000 ng/ml. Moreover, in assay [4], the “Dilution of E. coli Lysate for 50% Inhibition of 125I-TNFα Binding (ID50) TNFR-p55” value is reported as < 100 fold and the “ID50 TNFR-p55 / ID50 TNFR-p75” value is given as < 0.3.
Regarding A145R: human TNFα mutein A145R, in assay [1], the “Decrease … to Wildtype TNFR-p75” value was 0.8 fold and the “Mutein Concentration for 50% Inhibition of 125I-TNFα Binding (IC50) TNFR-p75” value turned out to be 0.035 µg/mL. In assay [2], the “Dilution of E. coli Lysate for 50% Inhibition of 125I-TNFα Binding (ID50) TNFR-p75” value is given as 3,330 fold. Besides, in assay [3], the “Decrease … to Wildtype TNFR-p55” value was 2,500 fold and the “Mutein Concentration for 50% Inhibition of 125I-TNFα Binding (IC50) TNFR-p55” value is reported as 100,000 ng/ml. Besides, in assay [4], the “Dilution of E. coli Lysate for 50% Inhibition of 125I-TNFα Binding (ID50) TNFR-p55” value is < 100 fold and the “ID50 TNFR-p55 / ID50 TNFR-p75” value is < 0.03.
Turning to A145W: human TNFα mutein A145W, in assay [1], the “Decrease … to Wildtype TNFR-p75” value stood at 2.5 fold and the “Mutein Concentration for 50% Inhibition of 125I-TNFα Binding (IC50) TNFR-p75” value came to 0.1 µg/mL. Moreover, in assay [2], the “Dilution of E. coli Lysate for 50% Inhibition of 125I-TNFα Binding (ID50) TNFR-p75” value is < 100 fold. Further, in assay [3], the “Decrease … to Wildtype TNFR-p55” value was determined as 250 fold and the “Mutein Concentration for 50% Inhibition of 125I-TNFα Binding (IC50) TNFR-p55” value is 10,000 ng/ml. Further, in assay [4], the “Dilution of E. coli Lysate for 50% Inhibition of 125I-TNFα Binding (ID50) TNFR-p55” value is < 100 fold and the “ID50 TNFR-p55 / ID50 TNFR-p75” value is < 1.
“D143N-A145R: human TNFα mutein D143N-A145R (Example I)”: in assay [1], the “Decrease … to Wildtype TNFR-p75” value is reported as 6.7 fold and the “Mutein Concentration for 50% Inhibition of 125I-TNFα Binding (IC50) TNFR-p75” value was 0.3 µg/mL. Besides, the “Dilution of E. coli Lysate for 50% Inhibition of 125I-TNFα Binding (ID50) TNFR-p75” value in assay [2] turned out to be 125 fold. Moreover, in assay [3], the “Decrease … to Wildtype TNFR-p55” value was > 2,500 fold and the “Mutein Concentration for 50% Inhibition of 125I-TNFα Binding (IC50) TNFR-p55” value is reported as > 100,000 ng/ml. Besides, in assay [4], the “Dilution of E. coli Lysate for 50% Inhibition of 125I-TNFα Binding (ID50) TNFR-p55” value is recorded as < 100 fold and the “ID50 TNFR-p55 / ID50 TNFR-p75” value is < 0.8.
Regarding D143Y: human TNFα mutein D143Y, in assay [1], the “Decrease … to Wildtype TNFR-p75” value is reported as 17.5 fold and the “Mutein Concentration for 50% Inhibition of 125I-TNFα Binding (IC50) TNFR-p75” value amounted to 0.35 µg/mL. For the same molecule, in assay [2], the “Dilution of E. coli Lysate for 50% Inhibition of 125I-TNFα Binding (ID50) TNFR-p75” value is on record as 1,330 fold. Moreover, in assay [3], the “Decrease … to Wildtype TNFR-p55” value is > 6,660 fold and the “Mutein Concentration for 50% Inhibition of 125I-TNFα Binding (IC50) TNFR-p55” value is > 100,000 ng/ml. Also, in assay [4], the “Dilution of E. coli Lysate for 50% Inhibition of 125I-TNFα Binding (ID50) TNFR-p55” value is recorded as < 100 fold and the “ID50 TNFR-p55 / ID50 TNFR-p75” value is listed as < 0.08.

B1: R31N-R32T-N34S: human TNFα mutein R31N-R32T-N34S (protein)
chain: VRSSSRTPSDKPVAHVVANPQAEGQLQWLNNTASALLANGVELRDNQLVVPSEGLYLIYSQVLFKGQGCPSTHVLLTHTISRIAVSYQTKVNLLSAIKSPCQRETPEGAEAKPWYEPIYLGGVFQLEKGDRLSAEINRPDYLDFAESGQVYFGIIAL
With B1, the “Dilution of E. coli Lysate for 50% Inhibition of 125I-TNFα Binding (ID50) TNFR-p75” value in assay [2] is given as < 100 fold. In assay [4], the “Dilution of E. coli Lysate for 50% Inhibition of 125I-TNFα Binding (ID50) TNFR-p55” value is given as < 100 fold and the “ID50 TNFR-p55 / ID50 TNFR-p75” value is recorded as 1.

B2: D143V-F144L-A145S: human TNFα mutein D143V-F144L-A145S (protein)
chain: B1 chain with N31R, T32R, S34N, D143V, F144L, A145S
Regarding B2, in assay [2], the “Dilution of E. coli Lysate for 50% Inhibition of 125I-TNFα Binding (ID50) TNFR-p75” value is < 100 fold. For the same molecule, in assay [4], the “Dilution of E. coli Lysate for 50% Inhibition of 125I-TNFα Binding (ID50) TNFR-p55” value was < 100 fold and the “ID50 TNFR-p55 / ID50 TNFR-p75” value is given as < 1.

B3: R31N-R32T-S86T: human TNFα mutein R31N-R32T-S86T (protein)
chain: B1 chain with S34N, S86T
As to B3, the “Dilution of E. coli Lysate for 50% Inhibition of 125I-TNFα Binding (ID50) TNFR-p75” value in assay [2] is on record as < 100 fold. Also, in assay [4], the “Dilution of E. coli Lysate for 50% Inhibition of 125I-TNFα Binding (ID50) TNFR-p55” value was found to be 500 fold and the “ID50 TNFR-p55 / ID50 TNFR-p75” value was > 5.
